{
  "source": "patent EP4725966A1",
  "about": "“HUMAN EPIDERMAL GROWTH FACTOR 3 ANTIBODY, PREPARATION METHOD THEREFOR, AND USE THEREOF” (priority 2023, dated 2024)",
  "key": {"SW620 tumor": {"tested_on": "SW620 tumor", "test": "Tumor inhibition in SW620 tumor-bearing mice", "format": "in vivo, Female SCID mice", "details": "3 mg/kg, single dose, FIG. 14", "experimental": "The anti-tumor efficacy of hHE4-G1W-DXd and cHE5-G1W-DXd was evaluated in SW620 tumor-bearing mice. Female SCID mice were subcutaneously injected with SW620 cells in the dorsal region to establish the xenograft model. After tumor establishment, mice were randomly divided into nine groups and treated with a single dose. Three groups served as negative controls: one group received PBS, and two groups received IgG-DXd at low dose (3 mg/kg) and high dose (6 mg/kg), respectively. Experimental groups were administered with hHE4-G1W-DXd, cHE5-G1W-DXd, or patritumab-DXd at 3 mg/kg or 6 mg/kg. The average Dxd-to-antibody ratio was 8. Mouse body weights and tumor volumes were measured."}, "[1]": {"tested_on": "HER3-expressing HCC1569 cells", "test": "ADC cytotoxicity", "format": "cell-based", "details": "FIG. 13", "experimental": "(§1) A375 and OVCAR3 cells were seeded in 96-well plates at 5,000 cells per well, and gradient-diluted ADCs (cHE4-G1W-DXd, cHE5-G1W-DXd, cHE7-G1W-DXd, patritumab-DXd, and IgG-DXd) were added. After incubation at 37°C for 5 days, cell viability was measured using CellTiter-Glo (Promega) to evaluate cytotoxicity of the ADCs.\n(§2) The cytotoxicity of antibody-drug conjugates based on hHE4-G1W against HER3-expressing HCC1569, A375, and JIMT-1 tumor cells was tested. Antibody-drug conjugates were prepared as described in Example 11. Hydrophobic interaction chromatography indicated the antibody-to-Dxd ratios for cHE4-G1W-DXd, hHE4-G1W-DXd, patritumab-DXd, and negative control IgG-DXd were 1:7, 1:8, 1:7.8, and 1:8, respectively."}, "[2]": {"tested_on": "human HER3-overexpressing JIMT-1 cells", "test": "ADC cytotoxicity", "format": "cell-based", "details": "FIG. 13", "experimental": "as §1, §2"}, "[3]": {"tested_on": "HER3-overexpressing A375 cells", "test": "Cell imaging of internalization", "format": "cell-based", "details": "100 nM, FIG. 11", "experimental": "A cell imaging microplate detection system was used to monitor the internalization of hHE4-G1W, hHE4-G1W-DXd, patritumab, and patritumab-DXd after binding to HER3 on the surface of A375 tumor cells. hHE4-G1W, hHE4-G1W-DXd, patritumab, and patritumab-DXd (each 100 nM) were incubated with HER3-overexpressing A375 cells at 4°C for 30 minutes, respectively. Unbound antibodies were removed by washing, and PE-labeled goat anti-human Fc secondary antibody (Jackson) was added. The mixture was incubated at 4°C for 30 minutes, and then the unbound secondary antibody was removed by washing. When the antibodies were bound to the surface of A375 cells and had not yet undergone internalization, these samples were designated as the 0h samples. Fluorescence images were acquired using a Biotek Cytation 1 imaging reader. Cells were then incubated at 37°C for 3 hours and imaged again."}, "[4]": {"tested_on": "A375 cells overexpressing human HER3", "test": "ADC cytotoxicity, CellTiter-Glo", "format": "cell-based", "details": "Example 21, FIG. 13"}},
  "data": [
    {"substance": "patritumab-DXd [reference compound]", "values": [
      {"measurement": "tumor growth", "setting": "SW620 tumor", "result": "significant tumor growth at day 14 postadministration"},
      {"measurement": "cytotoxicity against HCC1569 cells", "setting": "[1]", "result": "significant cytotoxicity"},
      {"measurement": "cytotoxicity against JIMT-1 cells", "setting": "[2]", "result": "significant cytotoxicity"},
      {"measurement": "binding to HER3 on the surface of A375 cells", "setting": "[3]; 0 hour", "result": "bound to HER3 expressed on the cell surface"},
      {"measurement": "internalization into A375 cells", "setting": "[3]; after 3 hours at 37°C", "result": "internalized into the A375 cells"},
      {"measurement": "cytotoxicity against A375 cells", "setting": "[4]", "result": "significant cytotoxicity"}
    ]}
  ]
}
